The numbers were not newly measured in US20020077465A1, “ADAM polynucleotides, polypeptides, and antibodies” (priority 2000, published 2002), which cites them from elsewhere.

Where a SMILES comes first, the peptide text is derived from it. [ ]: non-standard residue; d: D form. The star is where a group is joined. 4Abz = Nc1ccc(C(=O)O)cc1; NHOH = ON*

Data set [1] deals with lamivudine-resistant isolates. To be noted: a substantial proportion of lamivudine-resistant isolates.
Data set [2] has as its target MMP-8 (Homo sapiens, UniProt P22894). The settings on record: read-out: IC50 against MMP-8.
The target in data set [3] is MMP-3 (Homo sapiens, UniProt P08254). The settings on record: read-out: IC50 against MMP-3.
The target of data set [4] is MMP-9 (Homo sapiens, UniProt P14780). To be noted: read-out: IC50 against MMP-9.
The target of data set [5] is T1, MMP-1 (Homo sapiens, UniProt P03956).
T1 sequence (P03956 100-469): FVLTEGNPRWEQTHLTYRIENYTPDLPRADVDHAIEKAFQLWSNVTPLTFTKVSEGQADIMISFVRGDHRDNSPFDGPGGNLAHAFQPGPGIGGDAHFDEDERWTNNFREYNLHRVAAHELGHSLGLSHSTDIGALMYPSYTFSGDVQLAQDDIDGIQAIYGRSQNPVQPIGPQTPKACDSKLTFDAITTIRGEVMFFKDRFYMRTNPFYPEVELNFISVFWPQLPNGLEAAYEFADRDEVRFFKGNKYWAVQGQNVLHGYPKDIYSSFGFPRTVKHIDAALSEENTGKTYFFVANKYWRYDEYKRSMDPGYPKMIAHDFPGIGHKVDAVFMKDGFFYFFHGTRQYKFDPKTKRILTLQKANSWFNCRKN
To be noted: read-out: IC50 against MMP-1.

Data set [6] deals with AZT/3TC-resistant virus.
The subject of data set [7] is viruses containing the K103N mutation.
Data set [8] relates to HIV.
Data set [9] deals with human metastatic melanoma (M24 cells).
Data set [10] relates to M24 cells. To be noted: murine metastasis model.
Data set [11] relates to protease inhibitor-resistant viruses.
For data set [12], the system named is angiogenesis. The settings on record: both in vitro and in vivo.

Sequence of MMP-3 (P08254 100-477, species assumed): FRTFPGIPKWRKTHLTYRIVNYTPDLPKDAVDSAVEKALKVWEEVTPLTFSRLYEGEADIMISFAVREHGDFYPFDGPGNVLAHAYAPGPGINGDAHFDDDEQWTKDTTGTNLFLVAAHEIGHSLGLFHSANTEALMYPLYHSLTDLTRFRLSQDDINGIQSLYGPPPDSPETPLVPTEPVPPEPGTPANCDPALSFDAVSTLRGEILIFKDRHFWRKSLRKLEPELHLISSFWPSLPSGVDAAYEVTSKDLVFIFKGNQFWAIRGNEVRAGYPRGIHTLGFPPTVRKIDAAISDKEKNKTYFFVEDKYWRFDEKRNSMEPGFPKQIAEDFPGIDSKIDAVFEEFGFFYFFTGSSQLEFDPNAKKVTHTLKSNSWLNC
Sequence of MMP-9 (P14780 94-707, species assumed): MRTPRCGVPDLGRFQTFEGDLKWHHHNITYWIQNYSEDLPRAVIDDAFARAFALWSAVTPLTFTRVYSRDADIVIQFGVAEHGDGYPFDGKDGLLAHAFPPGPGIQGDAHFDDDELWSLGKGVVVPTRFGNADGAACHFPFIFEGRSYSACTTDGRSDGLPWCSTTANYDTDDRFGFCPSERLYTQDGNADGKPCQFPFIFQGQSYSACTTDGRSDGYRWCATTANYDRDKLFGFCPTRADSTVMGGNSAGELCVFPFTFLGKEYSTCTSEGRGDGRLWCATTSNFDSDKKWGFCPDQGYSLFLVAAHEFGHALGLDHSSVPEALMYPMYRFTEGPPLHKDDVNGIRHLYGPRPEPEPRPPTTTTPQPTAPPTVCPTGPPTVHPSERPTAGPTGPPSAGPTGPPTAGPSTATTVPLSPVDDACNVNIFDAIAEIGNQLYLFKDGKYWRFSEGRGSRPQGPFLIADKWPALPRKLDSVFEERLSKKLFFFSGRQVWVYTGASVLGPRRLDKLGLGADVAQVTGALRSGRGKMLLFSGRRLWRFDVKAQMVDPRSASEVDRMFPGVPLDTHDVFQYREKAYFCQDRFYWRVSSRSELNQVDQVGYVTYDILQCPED
Sequence of MMP-8 (P22894 101-467, species assumed): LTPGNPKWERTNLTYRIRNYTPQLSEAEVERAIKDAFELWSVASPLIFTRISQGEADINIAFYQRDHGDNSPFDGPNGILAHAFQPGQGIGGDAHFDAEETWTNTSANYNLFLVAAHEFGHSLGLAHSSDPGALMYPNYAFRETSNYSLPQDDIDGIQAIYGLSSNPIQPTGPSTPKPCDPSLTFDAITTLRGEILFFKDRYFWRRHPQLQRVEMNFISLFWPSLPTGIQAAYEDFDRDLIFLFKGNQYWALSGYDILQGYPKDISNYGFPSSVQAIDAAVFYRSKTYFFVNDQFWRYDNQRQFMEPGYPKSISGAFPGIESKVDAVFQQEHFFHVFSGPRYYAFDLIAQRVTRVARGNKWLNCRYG

Regarding `Nc1ccn([C@H]2CO[C@@H](CO)S2)c(=O)n1` [dOTC], the “activity against lamivudine-resistant isolates” value in data set [1] was “retains activity”.
In general, IC50 refers to the midpoint of a concentration-inhibition curve. `CC(C)C[C@@H](NC(=O)[C@@H]1CCCN1C(=O)CNC(=O)c1ccc(N)cc1)C(=O)N[C@H](C)C(=O)NO` [MMP inhibitor I] (H-[4Abz]GP[dL][dA]-{NHOH}): the IC50 in [2] is 1 µM; in [3], 150 µM; in data set [4], 30 µM; in [5] it was 1 µM.
In the case of `Nc1nc(=O)n([C@H]2C=C[C@@H](CO)O2)cc1F` [D-D4FC], the “activity against AZT/3TC-resistant virus” value in [6] was “activity against AZT/3TC-resistant virus”.
In the case of `CC[C@H]1C(=O)Nc2ccc(F)cc2N1C(=O)OC(C)C` [GW-420867X], the “activity against viruses containing the K103N mutation / K103N mutants” value in [7] is recorded as “active against K103N mutants”. For the same molecule, the “greater activity than HBY097” value in data set [8] (relative to HBY097) is listed as 25 fold.
Regarding contortrostatin, the “inhibition of M24 cell adhesion to laminin” value in [9] (laminin) is “not”. Further, the “inhibition of M24 cell adhesion to type I collagen, vitronectin, and fibronectin” value in data set [9] (type I collagen, vitronectin, fibronectin) is given as “inhibit”. The “inhibition of lung colonization of M24 cells” value in [10] is given as “inhibits”.
With `Cc1ccccc1CNC(=O)[C@H]1N(C(=O)[C@@H](O)[C@H](Cc2ccccc2)NC(=O)c2cccc(O)c2C)CSC1(C)C` [AG-1776], in data set [11], the “in vitro activity against protease inhibitor-resistant viruses” value is listed as “in vitro activity”.
For the molecule `Nc1nc(=O)n([C@@H]2CS[C@H](CO)O2)cc1F` [COVIRACIL, emtricitabine], in data set [8] (in vitro, relative to lamivudine (3TC)), the “greater activity in vitro than lamivudine (3TC)” value is on record as 3- to 10 fold.
As for `C[C@H](Sc1nc(N)cc(Cl)n1)c1cc2ccoc2cn1` [PNU-142721], the “activity against viruses containing the K103N mutation / K103N mutants” value in [7] was “active against K103N mutants”. Further, the “greater activity than its predecessor delavirdine” value in [8] (relative to delavirdine) is listed as 20- to 50 fold.

B1: METH1 polypeptides: metalloprotease thrombospondin polypeptides encoded by the human METH1 gene (WO99/37660) (protein, UniProt Q9UHI8 253-967, looked up)
A disintegrin and …: FVSSHRYVETMLVADQSMAEFHGSGLKHYLLTLFSVAARLYKHPSIRNSVSLVVVKILVIHDEQKGPEVTSNAALTLRNFCNWQKQHNPPSDRDAEHYDTAILFTRQDLCGSQTCDTLGMADVGTVCDPSRSCSVIEDDGLQAAFTTAHELGHVFNMPHDDAKQCASLNGVNQDSHMMASMLSNLDHSQPWSPCSAYMITSFLDNGHGECLMDKPQNPIQLPGDLPGTSYDANRQCQFTFGEDSKHCPDAASTCSTLWCTGTSGGVLVCQTKHFPWADGTSCGEGKWCINGKCVNKTDRKHFDTPFHGSWGMWGPWGDCSRTCGGGVQYTMRECDNPVPKNGGKYCEGKRVRYRSCNLEDCPDNNGKTFREEQCEAHNEFSKASFGSGPAVEWIPKYAGVSPKDRCKLICQAKGIGYFFVLQPKVVDGTPCSPDSTSVCVQGQCVKAGCDRIIDSKKKFDKCGVCGGNGSTCKKISGSVTSAKPGYHDIITIPTGATNIEVKQRNQRGSRNNGSFLAIKAADGTYILNGDYTLSTLEQDIMYKGVVLRYSGSSAALERIRSFSPLKEPLTIQVLTVGNALRPKIKYTYFVKKKKESFNAIPTFSAWVIEEWGECSKSCELGWQRRLVECRDINGQPASECAKEVKPASTRPCADHPCPQWQLGEWSSCSKTCGKGYKKRSLKCLSHDGGVLSHESCDPLKKPKHFIDFCTMAECS
For B1, in [12], the inhibition of angiogenesis entry is “potent inhibitors”.
